Assay results from ChEMBL document CHEMBL1777693, “New halogenated phenylcoumarins as tyrosinase inhibitors” (Bioorg Med Chem Lett, 2011).

Target: T1, Tyrosinase (Agaricus bisporus, UniProt O42713)
T1 sequence (O42713 whole entry): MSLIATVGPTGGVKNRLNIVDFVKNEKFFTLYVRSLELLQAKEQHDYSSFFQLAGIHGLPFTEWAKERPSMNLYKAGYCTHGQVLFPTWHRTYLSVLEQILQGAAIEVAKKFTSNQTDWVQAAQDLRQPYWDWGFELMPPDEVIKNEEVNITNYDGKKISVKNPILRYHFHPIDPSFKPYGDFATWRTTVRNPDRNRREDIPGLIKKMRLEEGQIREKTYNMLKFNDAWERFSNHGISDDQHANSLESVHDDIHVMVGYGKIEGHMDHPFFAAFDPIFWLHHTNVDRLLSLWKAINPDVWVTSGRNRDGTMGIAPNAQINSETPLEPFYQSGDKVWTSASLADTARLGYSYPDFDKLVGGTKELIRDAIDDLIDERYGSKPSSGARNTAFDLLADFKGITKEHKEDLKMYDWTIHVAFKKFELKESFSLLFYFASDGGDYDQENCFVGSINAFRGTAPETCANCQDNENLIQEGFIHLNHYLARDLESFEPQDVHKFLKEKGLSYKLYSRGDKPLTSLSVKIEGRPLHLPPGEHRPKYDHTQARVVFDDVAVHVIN
Test: Inhibition of mushroom tyrosinase using L-3,4- dihydroxyphenylalanine as substrate measured for 5 mins by spectrophotometric analysis

| SMILES | IC50 |
| --- | --- |
| COc1cc(Br)cc2cc(-c3ccccc3)c(=O)oc12 | > 5000 µM |
| CCOc1cccc2cc(-c3ccccc3)c(=O)oc12 | 2070 µM |
| CCOc1cccc2cc(-c3ccc(OC)cc3)c(=O)oc12 | > 5000 µM |
| COc1ccc(-c2cc3cc(Br)cc(OC)c3oc2=O)cc1 | 1360 µM |
| O=c1oc2c(O)cccc2cc1-c1ccccc1 | > 5000 µM |
| O=c1oc2c(O)cc(Br)cc2cc1-c1ccccc1 | 302 µM |
| O=c1oc2c(O)cccc2cc1-c1ccc(O)cc1 | 1300 µM |
| O=c1oc2c(O)cc(Br)cc2cc1-c1ccc(O)cc1 | 215 µM |

Target: T1, Tyrosinase
Test: Non-competitive inhibition of mushroom tyrosinase using L-3,4- dihydroxyphenylalanine as substrate by Lineweaver-Burk double reciprocal plot analysis

| SMILES | Ki |
| --- | --- |
| O=c1oc2c(O)cc(Br)cc2cc1-c1ccc(O)cc1 | 189 µM |

Target: T2, Tyrosinase (Homo sapiens, UniProt P14679)
T2 sequence (P14679 whole entry): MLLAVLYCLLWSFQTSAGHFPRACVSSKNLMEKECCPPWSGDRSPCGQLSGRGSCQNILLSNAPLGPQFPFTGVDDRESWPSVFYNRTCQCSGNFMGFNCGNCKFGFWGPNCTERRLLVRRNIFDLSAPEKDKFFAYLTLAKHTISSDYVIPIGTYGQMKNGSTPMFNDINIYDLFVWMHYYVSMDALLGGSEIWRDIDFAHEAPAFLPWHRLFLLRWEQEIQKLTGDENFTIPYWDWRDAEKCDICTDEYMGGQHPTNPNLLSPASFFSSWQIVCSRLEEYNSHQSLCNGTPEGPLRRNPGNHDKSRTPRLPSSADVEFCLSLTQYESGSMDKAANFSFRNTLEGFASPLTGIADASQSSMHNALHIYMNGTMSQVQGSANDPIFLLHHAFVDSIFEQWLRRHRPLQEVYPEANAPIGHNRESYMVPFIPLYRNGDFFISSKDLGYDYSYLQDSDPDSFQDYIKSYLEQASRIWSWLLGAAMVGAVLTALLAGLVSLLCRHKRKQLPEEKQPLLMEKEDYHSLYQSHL
Test: Inhibition of tyrosinase

| SMILES | IC50 |
| --- | --- |
| O=c1oc2cc(O)ccc2cc1-c1ccccc1 | > 10000 µM |
| O=c1oc2cc(O)ccc2cc1-c1cc(O)cc(O)c1 | > 10000 µM |
| Oc1ccc(/C=C/c2cc(O)cc(O)c2)cc1 [RESVERATROL] | 3680 µM |
| O=c1ccc2ccc(O)cc2o1 [UMBELLIFERONE] | 420 µM |
